Experimental data published in US8207154B2, “Catatonic bacteriochlorophyll derivatives” (Yeda Research and Development Co., Ltd., priority 2005, dated 2012).

Legend:
[1] = Biodistribution in rat organs and tissues (fluorescence); assay type: in vivo, Wistar rats; conditions: 0.6 mg/kg i.v.
Method: (x) Biodistribution. Wistar rats (n=2) were anesthetized and compound 5 of the invention (0.6 mg/kg) was injected into their tail vein. The control group (n=2) was not treated with the sensitizer. At 30 min and 24 h after injection, rats (one for each time-point), were sacrificed and samples of the indicated organs or tissues (heart, liver, lung, spleen, kidney, brain, testes, skin, muscle and fat) were collected into and weighed in pre-weighted vials, immediately frozen on dry ice and stored at […] in the dark until analyzed. For examination, each sample was thawed, weighed again, and homogenized (Polytron, Kinematica GmbH or Ultra-Turrax) in ice-cold water. The vials were then frozen in liquid nitrogen and lyophilized. The lyophilized samples were extracted with methanol (5-10 ml) in an amount equivalent to the tissue weight, and then vortexed and centrifuged. The supernatant was collected and analyzed and fluorescence measured as described in (ix) above. The fluorescence of methanol and of tissue extracts from control animals were used as blanks.

C6 glioma xenografts = test: Photodynamic treatment (PDT) of C6 glioma xenografts; assay type: in vivo, CD1 nude mice
Method: (vii) Tumor implantation. Cultured C6 glioma cell monolayers were scraped in saline, centrifuged at 250 g for 5 min, resuspended in saline and subcutaneously injected (2×10^6 cells/mouse) into the back of CD1 nude mice. Tumors reached a treatment diameter of 6-8 mm within 2 weeks. The mice were sacrificed (according to the guidelines of the Weizmann Institute of Science) when tumors reached the diameter of ≧15 mm.
(xi) PDT Protocol. CD1 nude mice bearing C6 glioma (n=17) were anesthetized and compound 5 (0.3 mg/kg) was injected via the tail vein. The tumor area was immediately illuminated (drug-to-light time interval (DLTI)=0) transcutaneously for 15 min by 755 nm diode laser (CeramOptec, Germany) with light dose of 80 mW/cm^2 (light field diameter—14 mm). Following illumination the mice (n=12) were placed back in the cage. Tumor response (using local necrosis at day 8 post-PDT as end point) was recorded photographically, and tumor volume was assessed (Gleave et al., 1992.) Response was considered as partial when only a part of the illuminated tumor became necrotic. Mice were considered cured if they were tumor free 90 days after treatment. Continued tumor growth following PDT was scored as no response. Mice were sacrificed when tumor diameter reached 15 mm. The following controls were used: (i) dark control (n=3)-tumor-bearing mice i.v. injected with sensitizer but not illuminated; (ii) light control (n=2)-tumor-bearing mice not injected with sensitizer but illuminated; (iii) untreated control (n=2)-tumor-bearing mice not injected with sensitizer and not illuminated.
Based on the pharmacokinetic data described in Example 20 above, the treatment protocol for compound 5 was set to 15-min illumination immediately after injection of the sensitizer, using a dedicated medical laser matched to the peak absorption of 5 (CeramOptec, Germany, 755 nm). In order to test the drug efficiency, CD1 male nude mice (n=12) were treated with a dose of 0.3 mg/kg compound 5 and light intensity of 80 mW/cm^2. […] FIGS. 6B-6C are photographs of the tumor site of a mice injected with compound 5 but not illuminated and of a mice injected with saline and illuminated, respectively.
FIG. 7 depicts a Kaplan-Meier survival curve showing 80% survival for mice treated with compound 5 and illuminated (treatment, squares).

St. albus = test: Phototoxicity on Gram-positive bacteria, colony counting; assay type: cell-based
Method: (ii) Bacterial cultures. Bacteria of strains St. albus and E. coli XL-1 were cultured in liquid LB medium (E. coli in LB containing 12.5 μg tetracyclin/ml) to a final density of OD600 nm=0.5-0.9 (1 OD=8×10^8 bacteria/ml). The bacteria were spun down (4000×g, 5 min.) and resuspended in PBS.
(b) Bacterial. To determine the photodynamic efficacy, bacteria were diluted to aliquots of 300 μl containing about 10^7 bacteria, and incubated with increasing concentrations of sensitizer in plastic test tubes in the dark for 1 h at room temperature, and then illuminated at 70 mW/cm^2 for 15 min. Samples of the treated bacteria cultures were subsequently plated at different dilutions (50-200 bacteria/plate) on LB agar and cultured for 24 h at 37° C. for determination of bacterial survival by colony counting. Triplicate determinations were conducted and representative experiments are shown.
The phototoxicity of positively-charged compound 5 was tested on Gram-positive St. albus and Gram-negative E. coli bacteria in comparison to the negatively-charged Pd 3^1-oxo-15-methoxycarbonylmethyl-Rhodobacteriochlorin 13^1-(2-sulfoethyl)amide dipotassium salt (described in PCT/IL03/00973). Bacteria were incubated with increasing concentrations of the sensitizers for 1 h and illuminated or kept in the dark. […] Gram-positive bacteria St. albus, was 100 times more sensitive to compound 5 than Gram-negative E. coli. No phototoxicity was observed when bacteria were incubated and treated with the same sensitizers' concentration range without illumination (dark controls).

## 3^1-Oxo-15-methoxycarbonylmethyl-Rhodo-bacteriochlorin 13^1,17^3-di(2-N^3-trimethylammoniumethyl)amide dicitrate salt [Compound 5]
[1]; 30 min after injection
  levels of the sensitizer in organs: relatively high in the blood, kidneys and lungs
[1]; 24 h after injection
  level of the sensitizer in the blood: almost background level
  levels of the sensitizer in organs: significant levels were still found in the kidneys, liver and spleen
C6 glioma xenografts; 0.3 mg/kg i.v., illuminated 15 min, 755 nm, 80 mW/cm^2
  survival (Kaplan-Meier survival curve): 80%
C6 glioma xenografts; C6 glioma xenografts in mice
  lower concentration causing tumor eradication than Pd-Bpheid or the negatively-charged 13^1-(2-sulfoethyl)amide dipotassium salt: 10 fold
C6 glioma xenografts; PDT-treated mouse, by day 32
  outcome at tumor site: the wound healed and the animal was cured
C6 glioma xenografts; PDT-treated mouse, day 14, 0.3 mg/kg, 80 mW/cm^2
  tumor necrosis: tumor necrosis was observed
C6 glioma xenografts; all animals of full treatment group, day 1 after treatment
  local reaction after treatment: developed inflammation and edema
C6 glioma xenografts; injected with compound but not illuminated
  tumor necrosis, dark control: No necrosis of the tumor
St. albus
  sensitivity of St. albus relative to E. coli: 100 times
St. albus; 1 h incubation, illuminated 15 min at 70 mW/cm^2, read-out: Kd (phototoxicity)
  phototoxic killing concentration: 20 nM
